Entries after “also recorded” stand apart in the source; their conditions may differ.

Experimental findings from US20260216239A1 (Arizona Board of Regents on Behalf of the University of …, priority 2020, published 2026) are described below.

Test [1] concerns Calloselasma rhodostoma venom. In words: Thrombelastography in human plasma of venom procoagulant activity after isolated exposure of venom to compounds. The format is biochemical. The settings on record: venom 5 μg/ml in plasma. The method, then:
(§1) Thrombelastographic analyses. The volumes of subsequently described plasmatic and other additives summed to a final volume of 360 μl. Samples were composed of 320 μl of plasma; 16.4 μl of PBS, 20 μl of 200 mM CaCl2), and 3.6 μl of PBS or venom mixture, which were pipetted into a disposable cup in a Thrombelastograph® hemostasis system (Model 5000, Haemonetics Inc., Braintree, MA, USA) at 37° C., and then rapidly mixed by moving the cup up against and then away from the plastic pin five times. The following viscoelastic parameters described previously (see, Nielsen V G (2019) J Thromb Thrombolysis 47, 73-79; Gessner G, et al., (2017) Eur J Pharmacol 815, 33-41; Nielsen V G, Wagner M T, Frank N (2020) Int J Mol Sci 21, 2082; Lazić D, Arsenijević A, Puchta R, Bugarčić ŽD, Rilak A (2016) Dalton Trans 45, 4633; Hanif M, et al., (2017) ChemPlusChem 82, 841-847) were measured: time to maximum rate of thrombus generation (TMRTG): this is the time interval (minutes) observed prior to maximum speed of clot growth; maximum rate of thrombus generation (MRTG): this is the maximum velocity of clot growth observed (dynes/cm^2/second); and total thrombus generation (TTG, dynes/cm^2), the final viscoelastic resistance observed after clot formation.
C. rhodostoma. […] The final concentration of this venom in plasma was 5 μg/ml.
(§2) Given the aforementioned, the experimental conditions utilized were: 1) V condition—venom in PBS; 2) Ru(II) condition—venom exposed to CORM-2; 3) Ru(III) condition—venom exposed to RuCl3; 4) Ru(II+III) condition—venom exposed to CORM-2 and RuCl3 simultaneously. After the 5 minute period at room temperature, 3.6 μl of one of these solutions was added to the plasma sample in the plastic thrombelastograph cup.
(§3) The volumes of subsequently described plasmatic and other additives summed to a final volume of 360 μl. Samples were composed of 320 μl of plasma; 16.4 μl of PBS, 20 μl of 200 mM CaCl2), and 3.6 μl of PBS or venom mixture, which were pipetted into a disposable cup in a Thrombelastograph® hemostasis system (Model 5000, Haemonetics Inc., Braintree, MA, USA) at 37° C., and then rapidly mixed by moving the cup up against and then away from the plastic pin five times. The following viscoelastic parameters described previously (see, Nielsen, V. G. J Thromb Thrombolysis 2019, 47, 73-79; Gessner, G.; et al., Eur J Pharmacol 2017, 815, 33-41; Nielsen, V. G.; Wagner, M. T.; Frank, N. Int J Mol Sci 2020, 21, 2082; Lazid, D.; et al., Dalton Trans 2016, 45, 4633; Hanif, M.; et al., ChemPlusChem 2017, 82, 841-847) were measured: time to maximum rate of thrombus generation (TMRTG): this is the time interval (minutes) observed prior to maximum speed of clot growth; maximum rate of thrombus generation (MRTG): this is the maximum velocity of clot growth observed (dynes/cm2/second); and total thrombus generation (TTG, dynes/cm2), the final viscoelastic resistance observed after clot formation.
C. rhodostoma. […] This venom was also exposed to 0 or 100 μM CORM-2 in the presence of 0 or 100 μM carboplatin in another series of experiments. The final concentration of this venom in plasma was 5 μg/ml.

Test [2] has as its system Bothrops moojeni venom. The description is as above. It is filed as biochemical. The settings on record: venom 2 μg/ml in plasma; for procoagulant activity of venom: venom exposed ≥5 min in PBS to 1 mM CORM-2, 100 μM RuCl3 or both, vs venom alone. How it is done:
as §1
B. moojeni. This venom was exposed to 0 or 1 mM CORM-2 in the presence of 0 or 100 μM RuCl3 in PBS for at least 5 minutes at room temperature prior to placement into plasma followed immediately with commencement of thrombelastographic analysis. The final concentration of this venom in plasma was 2 μg/ml.
as §2, §3
B. moojeni. This venom was exposed to 0 or 1 mM CORM-2 or CORM-3 in the presence of 0 or 100 μM RuCl3 in PBS for at least 5 minutes at room temperature prior to placement into plasma followed immediately with commencement of thrombelastographic analysis. This venom was also exposed to 0 or 1 mM CORM-2 in the presence of 0 or 100 μM carboplatin in another series of experiments. The final concentration of this venom in plasma was 2 μg/ml.
Given the aforementioned, the experimental conditions utilized were: 1) V condition—venom in PBS; 2) Ru(II) condition—venom exposed to CORM-2 or CORM-3; 3) Ru(III) condition—venom exposed to RuCl3; 4) Ru(II+III) condition—venom exposed to CORM-2 or CORM-3 and RuCl3 simultaneously; 5) Pt(II) condition—venom exposed to carboplatin; and 6) Pt+Ru condition—venom exposed to carboplatin and CORM-2.

Where [3] appears, read: 50 μM CORM-2, 50 μM RuCl3 or both.
The mark [4] stands for this setting: 100 μM carboplatin, 100 μM CORM-2 or both.
Setting [5] is: venom exposed ≥5 min in PBS to 50 μM CORM-2, 50 μM RuCl3 or both.
Where [6] appears, read: 100 μM carboplatin, 1 mM CORM-2 or both.
[7] abbreviates: 1 mM CORM-2, 100 μM RuCl3 or both.
[8] abbreviates: 100 μM CORM-3, 100 μM RuCl3 or both.
[9] abbreviates: 1 mM CORM-3, 100 μM RuCl3 or both.
Where [10] appears, read: venom exposed ≥5 min in PBS to 1 mM CORM-3, 100 μM RuCl3 or both.

On to `[C-]#[O+].[C-]#[O+].[C-]#[O+].[C-]#[O+].[C-]#[O+].[C-]#[O+].[Cl][Ru][Cl].[Cl][Ru][Cl]` [CORM-2, tricarbonyldichlororuthenium(II) dimer], for which the “maximum rate of thrombus generation (MRTG)” value (from here on “maximum rate … (MRTG)”) in test [1] (setting [3]) is recorded as “decrease”; in test [1] (setting [4]), “decrease”; in test [2] (setting [6]), “decreased”; in test [2] (setting [7]) it was “decrease”. The “time to maximum rate of thrombus generation (TMRTG)” value (“time to maximum rate” below) is recorded as “increased; also recorded: significant increase” in test [1] (setting [3]), “significant increase” in test [1] (setting [4]), “significantly increased” in test [2] (setting [6]) and “prolonged; also recorded: significant increase” in test [2] (setting [7]). Besides, the “total thrombus generation (TTG)” value in test [1] (setting [4]) is on record as “decrease”. For the same compound, the “procoagulant activity of venom” value in test [1] (setting [5]) was “significantly decreased; also recorded: procoagulant activity inhibition”; in test [2] it was “significant loss of activity; also recorded: inhibition of procoagulant activity”.

Consider `[Cl][Ru]([Cl])[Cl]` [RuCl3, ruthenium(III) chloride], for which the “maximum rate … (MRTG)” value was “decrease” in test [1] (setting [3]), “decrease” in test [1] (setting [8]) and “did not significantly change” in test [2] (setting [9]). Moreover, the “time to maximum rate” value in test [1] (setting [3]) was “increase”; in test [1] (setting [8]), “significant increase”; in test [2] (setting [10]), “significant increase”. Moreover, the “procoagulant activity of venom” value is listed as “significantly diminished” in test [1] (setting [5]) and “no significant effect; also recorded: did not significantly diminish” in test [2]. Moreover, the “total thrombus generation (TTG)” value in test [2] (setting [9]) is given as “significantly increased”.

Take “Tricarbonylchloro(glycinato)ruthenium [CORM-3]”: the “procoagulant activity of venom” value in test [1] (setting [8]) is listed as “no significant effect”. Further, in test [2] (setting [9]), the “maximum rate … (MRTG)” value is on record as “did not significantly change” and the “total thrombus generation (TTG)” value is listed as “significantly increased”. The “time to maximum rate” value in test [2] (setting [10]) is “significant increase”.
